# Test results: patent US9340590B2 (priority 2011, dated 2016)
# Where two headings read alike, the source gives them in different places. Positions of bridges follow the written chain, without caps; N, C: chain ends. Non-standard residues stand in square brackets, D forms with d. Residues, ends and D or L forms follow the SMILES beside them. Lys(Me2) = CN(C)CCCC[C@H](N)C(=O)O
# Columns and labels:
# Assay in all cases: cell-based
# hNav1.7 = hNav1.7 (Homo sapiens, UniProt Q15858); format: cell-based
# hNav1.5 = hNav1.5 (Homo sapiens, UniProt Q14524); conditions: IonWorks Quattro, read-out: IWQ Use Nav1.5
# hNav1.3 = hNav1.3 (Homo sapiens, UniProt Q9NY46); conditions: IonWorks Quattro, read-out: IWQ Use Nav1.3
# [1] = Table 22, IonWorks Quattro, use, […], read-out: IWQ Use Nav1.7
# hNav1.3, sequence (Q9NY46 whole entry, looked up): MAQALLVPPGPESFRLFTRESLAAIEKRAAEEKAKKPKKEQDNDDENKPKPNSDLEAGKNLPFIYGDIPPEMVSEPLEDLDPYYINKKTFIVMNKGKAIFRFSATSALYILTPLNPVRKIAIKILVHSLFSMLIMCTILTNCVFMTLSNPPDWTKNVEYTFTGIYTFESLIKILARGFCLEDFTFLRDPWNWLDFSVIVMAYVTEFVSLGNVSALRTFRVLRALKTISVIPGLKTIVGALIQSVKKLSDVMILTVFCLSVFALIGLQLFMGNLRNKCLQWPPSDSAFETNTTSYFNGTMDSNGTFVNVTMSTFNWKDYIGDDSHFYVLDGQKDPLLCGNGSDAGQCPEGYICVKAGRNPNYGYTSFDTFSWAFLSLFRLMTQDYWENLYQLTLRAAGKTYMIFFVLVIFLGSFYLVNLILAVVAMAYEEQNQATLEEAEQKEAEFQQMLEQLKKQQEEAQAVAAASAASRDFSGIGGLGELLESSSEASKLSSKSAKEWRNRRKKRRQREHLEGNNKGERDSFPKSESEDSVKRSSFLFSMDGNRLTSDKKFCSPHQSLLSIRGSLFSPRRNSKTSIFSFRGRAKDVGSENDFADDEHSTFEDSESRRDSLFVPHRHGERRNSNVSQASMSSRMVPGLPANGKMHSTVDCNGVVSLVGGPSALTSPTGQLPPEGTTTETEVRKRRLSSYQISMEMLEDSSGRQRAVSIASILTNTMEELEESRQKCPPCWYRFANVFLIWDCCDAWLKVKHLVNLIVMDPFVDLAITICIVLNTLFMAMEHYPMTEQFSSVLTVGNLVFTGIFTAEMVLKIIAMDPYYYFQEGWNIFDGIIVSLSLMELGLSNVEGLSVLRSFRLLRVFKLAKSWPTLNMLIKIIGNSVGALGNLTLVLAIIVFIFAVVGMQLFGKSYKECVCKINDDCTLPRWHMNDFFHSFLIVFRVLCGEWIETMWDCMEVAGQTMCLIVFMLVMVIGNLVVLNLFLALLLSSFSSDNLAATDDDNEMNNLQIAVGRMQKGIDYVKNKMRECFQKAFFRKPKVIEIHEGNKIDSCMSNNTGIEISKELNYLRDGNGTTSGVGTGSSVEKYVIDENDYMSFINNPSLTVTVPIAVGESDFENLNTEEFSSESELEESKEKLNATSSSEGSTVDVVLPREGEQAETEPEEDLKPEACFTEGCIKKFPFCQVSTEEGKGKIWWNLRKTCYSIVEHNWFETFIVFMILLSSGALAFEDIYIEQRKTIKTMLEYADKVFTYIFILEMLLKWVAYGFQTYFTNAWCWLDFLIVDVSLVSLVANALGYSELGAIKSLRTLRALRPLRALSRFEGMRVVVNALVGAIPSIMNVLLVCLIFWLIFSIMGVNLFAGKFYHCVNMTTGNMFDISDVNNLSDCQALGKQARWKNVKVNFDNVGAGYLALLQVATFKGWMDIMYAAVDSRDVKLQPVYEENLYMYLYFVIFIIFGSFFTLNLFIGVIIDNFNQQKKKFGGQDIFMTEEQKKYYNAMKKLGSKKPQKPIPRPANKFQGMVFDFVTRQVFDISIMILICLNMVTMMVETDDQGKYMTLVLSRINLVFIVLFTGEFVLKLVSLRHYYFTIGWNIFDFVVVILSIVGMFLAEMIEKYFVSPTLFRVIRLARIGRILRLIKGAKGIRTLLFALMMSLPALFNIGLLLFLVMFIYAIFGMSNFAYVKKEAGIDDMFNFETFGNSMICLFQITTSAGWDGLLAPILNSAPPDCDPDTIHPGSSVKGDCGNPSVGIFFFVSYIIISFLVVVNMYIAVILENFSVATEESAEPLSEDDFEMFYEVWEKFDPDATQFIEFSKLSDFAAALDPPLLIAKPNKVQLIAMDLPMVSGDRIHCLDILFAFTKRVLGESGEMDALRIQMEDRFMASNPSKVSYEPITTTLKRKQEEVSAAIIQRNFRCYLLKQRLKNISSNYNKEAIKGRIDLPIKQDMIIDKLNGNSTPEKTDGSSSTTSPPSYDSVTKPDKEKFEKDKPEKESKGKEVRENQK
# hNav1.7, sequence (Q15858 whole entry, looked up): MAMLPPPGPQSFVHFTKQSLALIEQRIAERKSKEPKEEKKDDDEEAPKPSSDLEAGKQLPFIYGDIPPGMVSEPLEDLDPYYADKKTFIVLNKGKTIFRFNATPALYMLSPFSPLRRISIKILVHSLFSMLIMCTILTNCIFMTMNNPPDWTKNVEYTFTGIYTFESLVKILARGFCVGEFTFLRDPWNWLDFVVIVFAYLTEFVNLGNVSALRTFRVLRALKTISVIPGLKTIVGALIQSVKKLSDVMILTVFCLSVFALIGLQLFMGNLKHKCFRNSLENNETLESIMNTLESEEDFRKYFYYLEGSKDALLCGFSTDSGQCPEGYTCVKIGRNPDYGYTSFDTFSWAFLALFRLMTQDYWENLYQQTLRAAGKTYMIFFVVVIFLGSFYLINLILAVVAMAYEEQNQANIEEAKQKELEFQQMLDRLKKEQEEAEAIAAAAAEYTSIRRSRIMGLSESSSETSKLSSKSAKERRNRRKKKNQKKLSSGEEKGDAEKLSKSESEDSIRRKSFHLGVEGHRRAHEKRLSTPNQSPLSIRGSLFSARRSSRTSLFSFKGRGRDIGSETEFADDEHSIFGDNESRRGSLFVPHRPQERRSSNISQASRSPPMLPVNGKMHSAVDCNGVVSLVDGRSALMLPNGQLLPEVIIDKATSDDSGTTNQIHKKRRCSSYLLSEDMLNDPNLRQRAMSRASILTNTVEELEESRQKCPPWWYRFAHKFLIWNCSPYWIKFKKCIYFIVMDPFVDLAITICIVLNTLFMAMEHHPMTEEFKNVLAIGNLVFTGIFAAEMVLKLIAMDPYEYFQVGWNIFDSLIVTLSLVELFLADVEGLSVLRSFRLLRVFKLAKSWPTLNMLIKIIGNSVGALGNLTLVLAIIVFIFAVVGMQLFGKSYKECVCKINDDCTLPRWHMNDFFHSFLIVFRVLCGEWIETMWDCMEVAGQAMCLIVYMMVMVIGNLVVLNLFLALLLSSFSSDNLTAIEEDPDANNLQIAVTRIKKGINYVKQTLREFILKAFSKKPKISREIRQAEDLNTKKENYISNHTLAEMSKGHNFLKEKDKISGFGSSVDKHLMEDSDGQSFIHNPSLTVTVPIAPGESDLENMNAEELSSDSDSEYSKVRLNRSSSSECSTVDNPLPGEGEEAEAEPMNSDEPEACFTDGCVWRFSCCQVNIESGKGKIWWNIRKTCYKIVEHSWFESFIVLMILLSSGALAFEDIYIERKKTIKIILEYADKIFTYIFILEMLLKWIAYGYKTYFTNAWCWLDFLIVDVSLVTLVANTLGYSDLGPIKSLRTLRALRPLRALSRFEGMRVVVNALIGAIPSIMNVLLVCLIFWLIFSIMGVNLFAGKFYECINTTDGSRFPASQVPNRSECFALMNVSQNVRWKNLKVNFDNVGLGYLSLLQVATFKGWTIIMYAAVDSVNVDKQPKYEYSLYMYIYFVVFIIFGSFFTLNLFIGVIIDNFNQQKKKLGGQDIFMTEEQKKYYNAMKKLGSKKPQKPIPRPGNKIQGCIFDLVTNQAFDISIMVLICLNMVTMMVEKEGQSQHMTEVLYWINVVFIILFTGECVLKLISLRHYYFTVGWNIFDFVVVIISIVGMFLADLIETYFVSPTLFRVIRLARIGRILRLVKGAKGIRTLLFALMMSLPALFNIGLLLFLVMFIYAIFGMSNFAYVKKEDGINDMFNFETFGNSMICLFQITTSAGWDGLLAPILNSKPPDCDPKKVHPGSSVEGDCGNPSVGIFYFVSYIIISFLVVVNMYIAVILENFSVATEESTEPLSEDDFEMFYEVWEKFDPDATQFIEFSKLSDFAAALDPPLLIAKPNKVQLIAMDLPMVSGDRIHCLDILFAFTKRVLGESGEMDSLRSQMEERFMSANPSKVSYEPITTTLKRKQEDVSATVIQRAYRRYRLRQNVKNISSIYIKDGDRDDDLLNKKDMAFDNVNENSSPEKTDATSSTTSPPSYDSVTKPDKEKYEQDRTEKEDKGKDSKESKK
SMILES,"IC50 (hNav1.7; IonWorks Quattro, Use, read-out: IWQ Use Nav1.7) [nM]",IC50 (hNav1.5; Use) [µM],IC50 (hNav1.3; Use) [nM],IC50 (hNav1.7) [nM],IC50 (hNav1.7; [1]) [nM],"IC50 (hNav1.5; Table 22, use, […]) [µM]","IC50 (hNav1.3; Table 22, use, […]) [nM]"
"CC[C@H](C)[C@@H]1NC(=O)[C@@H]2CSSC[C@@H]3NC(=O)[C@H](C(C)C)NC(=O)[C@H](CC(C)C)NC(=O)[C@H](CC(N)=O)NC(=O)[C@@H]4CCCN4C(=O)[C@H](CCCNC(=N)N)NC(=O)[C@H](CSSC[C@H](NC(=O)[C@@H](N)CC(=O)O)C(=O)N[C@@H](CC(C)C)C(=O)NCC(=O)N[C@@H](Cc4ccccc4)C(=O)N[C@@H](CCSC)C(=O)N[C@@H](CCCNC(=N)N)C(=O)N[C@@H](CCCCN)C(=O)N2)NC(=O)[C@H](CSSC[C@@H](C(=O)N[C@@H](CCCCN)C(=O)N[C@@H](Cc2ccc(O)cc2)C(=O)N[C@H](C(=O)N[C@@H](Cc2ccccc2)C(N)=O)C(C)C)NC(=O)[C@H](Cc2c[nH]c4ccccc24)NC(=O)[C@H](CCCCN)NC(=O)[C@H](Cc2c[nH]cn2)NC(=O)[C@H]([C@@H](C)O)NC(=O)[C@H](CCCCN(C)C)NC(=O)[C@H](CO)NC3=O)NC(=O)[C@H](CCCCN)NC(=O)[C@H](CC(=O)O)NC(=O)[C@H](CC(N)=O)NC(=O)[C@H](CC(=O)O)NC(=O)[C@@H]2CCCN2C1=O [compound 335] (H-DCLGFMRKCIPDNDKCCRPNLVCS[Lys(Me2)]THKWCKYVF-NH2; disulfide 2-17, 9-23, 16-30)",310,7.93,110,,,,
CC[C@H](C)[C@@H]1NC(=O)[C@@H]2CSSC[C@@H]3NC(=O)[C@H](C(C)C)NC(=O)[C@H](CC(C)C)NC(=O)[C@H](CC(N)=O)NC(=O)[C@@H]4CCCN4C(=O)[C@H](CCCNC(=N)N)NC(=O)[C@H](CSSC[C@H](NC(=O)[C@@H](N)CC(=O)O)C(=O)N[C@@H](CC(C)C)C(=O)NCC(=O)N[C@@H](Cc4ccccc4)C(=O)N[C@@H](CCSC)C(=O)N[C@@H](CCCNC(=N)N)C(=O)N[C@@H](CCCCN)C(=O)N2)NC(=O)[C@H](CSSC[C@@H](C(=O)N[C@@H](CCCCN)C(=O)N[C@@H](Cc2ccc(O)cc2)C(=O)N[C@H](C(=O)N[C@@H](Cc2ccccc2)C(N)=O)C(C)C)NC(=O)[C@H](Cc2c[nH]c4ccccc24)NC(=O)[C@H](CCCCN)NC(=O)[C@H](Cc2c[nH]cn2)NC(=O)[C@H]([C@@H](C)O)NC(=O)[C@H](CCCNC(=NC)NC)NC(=O)[C@H](CO)NC3=O)NC(=O)[C@H](CCCCN)NC(=O)[C@H](CC(=O)O)NC(=O)[C@H](CC(N)=O)NC(=O)[C@H](CC(=O)O)NC(=O)[C@@H]2CCCN2C1=O [compound 336],,9.22,110,140,,,
"CC[C@H](C)[C@@H]1NC(=O)[C@@H]2CSSC[C@@H]3NC(=O)[C@H](C(C)C)NC(=O)[C@H](CC(C)C)NC(=O)[C@H](CC(N)=O)NC(=O)[C@@H]4CCCN4C(=O)[C@H](CCCNC(=N)N)NC(=O)[C@H](CSSC[C@H](NC(=O)[C@@H](N)CC(=O)O)C(=O)N[C@@H](CC(C)C)C(=O)NCC(=O)N[C@@H](Cc4ccccc4)C(=O)N[C@@H](CCSC)C(=O)N[C@@H](CCCNC(=N)N)C(=O)N[C@@H](CCCCN)C(=O)N2)NC(=O)[C@H](CSSC[C@@H](C(=O)N[C@@H](CCCCN)C(=O)N[C@@H](Cc2ccc(O)cc2)C(=O)N[C@H](C(=O)N[C@@H](Cc2ccccc2)C(N)=O)C(C)C)NC(=O)[C@H](Cc2c[nH]c4ccccc24)NC(=O)[C@H](CCCCN)NC(=O)[C@H](Cc2c[nH]cn2)NC(=O)[C@H](CO)NC(=O)[C@H](CCCNC(=N)N)NC(=O)[C@H](CO)NC3=O)NC(=O)[C@H](CCCCN)NC(=O)[C@H](CC(=O)O)NC(=O)[C@H](CC(N)=O)NC(=O)[C@H](CC(=O)O)NC(=O)[C@@H]2CCCN2C1=O [compound 338] (H-DCLGFMRKCIPDNDKCCRPNLVCSRSHKWCKYVF-NH2; disulfide 2-17, 9-23, 16-30)",,,,,100,12.3,90
"CC[C@H](C)[C@@H]1NC(=O)[C@@H]2CSSC[C@@H]3NC(=O)[C@H](C(C)C)NC(=O)[C@H](CC(C)C)NC(=O)[C@H](CC(N)=O)NC(=O)[C@@H]4CCCN4C(=O)[C@H](CCCNC(=N)N)NC(=O)[C@H](CSSC[C@H](NC(=O)[C@@H](N)CC(=O)O)C(=O)N[C@@H](CC(C)C)C(=O)NCC(=O)N[C@@H](Cc4ccccc4)C(=O)N[C@@H](CCSC)C(=O)N[C@@H](CCCNC(=N)N)C(=O)N[C@@H](CCCCN)C(=O)N2)NC(=O)[C@H](CSSC[C@@H](C(=O)N[C@@H](CCCCN)C(=O)N[C@@H](Cc2ccc(O)cc2)C(=O)N[C@H](C(=O)N[C@@H](Cc2ccccc2)C(N)=O)C(C)C)NC(=O)[C@H](Cc2c[nH]c4ccccc24)NC(=O)[C@H](CCCCN)NC(=O)[C@H](Cc2c[nH]cn2)NC(=O)[C@H](CCC(N)=O)NC(=O)[C@H](CCCNC(=N)N)NC(=O)[C@H](CO)NC3=O)NC(=O)[C@H](CCCCN)NC(=O)[C@H](CC(=O)O)NC(=O)[C@H](CC(N)=O)NC(=O)[C@H](CC(=O)O)NC(=O)[C@@H]2CCCN2C1=O [compound 339] (H-DCLGFMRKCIPDNDKCCRPNLVCSRQHKWCKYVF-NH2; disulfide 2-17, 9-23, 16-30)",,,,,140,17.9,90
"CC[C@H](C)[C@@H]1NC(=O)[C@@H]2CSSC[C@@H]3NC(=O)[C@H](C(C)C)NC(=O)[C@H](CC(C)C)NC(=O)[C@H](CC(N)=O)NC(=O)[C@@H]4CCCN4C(=O)[C@H](CCCNC(=N)N)NC(=O)[C@H](CSSC[C@H](NC(=O)[C@@H](N)CC(=O)O)C(=O)N[C@@H](CC(C)C)C(=O)NCC(=O)N[C@@H](Cc4ccccc4)C(=O)N[C@@H](CCSC)C(=O)N[C@@H](CCCNC(=N)N)C(=O)N[C@@H](CCCCN)C(=O)N2)NC(=O)[C@H](CSSC[C@@H](C(=O)N[C@@H](CCCCN)C(=O)N[C@@H](Cc2ccc(O)cc2)C(=O)N[C@H](C(=O)N[C@@H](Cc2ccccc2)C(N)=O)C(C)C)NC(=O)[C@H](Cc2c[nH]c4ccccc24)NC(=O)[C@H](CCCCN)NC(=O)[C@H](Cc2c[nH]cn2)NC(=O)[C@H](Cc2ccc(O)cc2)NC(=O)[C@H](CCCNC(=N)N)NC(=O)[C@H](CO)NC3=O)NC(=O)[C@H](CCCCN)NC(=O)[C@H](CC(=O)O)NC(=O)[C@H](CC(N)=O)NC(=O)[C@H](CC(=O)O)NC(=O)[C@@H]2CCCN2C1=O [compound 340] (H-DCLGFMRKCIPDNDKCCRPNLVCSRYHKWCKYVF-NH2; disulfide 2-17, 9-23, 16-30)",,,,,80,5.51,60
"CC[C@H](C)[C@@H]1NC(=O)[C@@H]2CSSC[C@@H]3NC(=O)[C@H](C(C)C)NC(=O)[C@H](CC(C)C)NC(=O)[C@H](CC(N)=O)NC(=O)[C@@H]4CCCN4C(=O)[C@H](CCCNC(=N)N)NC(=O)[C@H](CSSC[C@H](NC(=O)[C@@H](N)CC(=O)O)C(=O)N[C@@H](CC(C)C)C(=O)NCC(=O)N[C@@H](Cc4ccccc4)C(=O)N[C@@H](CCSC)C(=O)N[C@@H](CCCNC(=N)N)C(=O)N[C@@H](CCCCN)C(=O)N2)NC(=O)[C@H](CSSC[C@@H](C(=O)N[C@@H](CCCCN)C(=O)N[C@@H](Cc2ccc(O)cc2)C(=O)N[C@H](C(=O)N[C@@H](Cc2ccccc2)C(N)=O)C(C)C)NC(=O)[C@H](Cc2c[nH]c4ccccc24)NC(=O)[C@H](CCCCN)NC(=O)[C@H](Cc2c[nH]cn2)NC(=O)[C@H](Cc2ccccc2)NC(=O)[C@H](CCCNC(=N)N)NC(=O)[C@H](CO)NC3=O)NC(=O)[C@H](CCCCN)NC(=O)[C@H](CC(=O)O)NC(=O)[C@H](CC(N)=O)NC(=O)[C@H](CC(=O)O)NC(=O)[C@@H]2CCCN2C1=O [compound 341] (H-DCLGFMRKCIPDNDKCCRPNLVCSRFHKWCKYVF-NH2; disulfide 2-17, 9-23, 16-30)",,,,,80,5.88,100
"CC[C@H](C)[C@@H]1NC(=O)[C@@H]2CSSC[C@@H]3NC(=O)[C@H](C(C)C)NC(=O)[C@H](CC(C)C)NC(=O)[C@H](CC(N)=O)NC(=O)[C@@H]4CCCN4C(=O)[C@H](CCCNC(=N)N)NC(=O)[C@H](CSSC[C@H](NC(=O)[C@@H](N)CC(=O)O)C(=O)N[C@@H](CC(C)C)C(=O)NCC(=O)N[C@@H](Cc4ccccc4)C(=O)N[C@@H](CCSC)C(=O)N[C@@H](CCCNC(=N)N)C(=O)N[C@@H](CCCCN)C(=O)N2)NC(=O)[C@H](CSSC[C@@H](C(=O)N[C@@H](CCCCN)C(=O)N[C@@H](Cc2ccc(O)cc2)C(=O)N[C@H](C(=O)N[C@@H](Cc2ccccc2)C(N)=O)C(C)C)NC(=O)[C@H](Cc2c[nH]c4ccccc24)NC(=O)[C@H](CCCCN)NC(=O)[C@H](Cc2c[nH]cn2)NC(=O)[C@H](CC(N)=O)NC(=O)[C@H](CCCNC(=N)N)NC(=O)[C@H](CO)NC3=O)NC(=O)[C@H](CCCCN)NC(=O)[C@H](CC(=O)O)NC(=O)[C@H](CC(N)=O)NC(=O)[C@H](CC(=O)O)NC(=O)[C@@H]2CCCN2C1=O [compound 342] (H-DCLGFMRKCIPDNDKCCRPNLVCSRNHKWCKYVF-NH2; disulfide 2-17, 9-23, 16-30)",,,,,90,6.29,100
"CC[C@H](C)[C@@H]1NC(=O)[C@@H]2CSSC[C@@H]3NC(=O)[C@H](C(C)C)NC(=O)[C@H](CC(C)C)NC(=O)[C@H](CC(N)=O)NC(=O)[C@@H]4CCCN4C(=O)[C@H](CCCNC(=N)N)NC(=O)[C@H](CSSC[C@H](NC(=O)[C@@H](N)CC(=O)O)C(=O)N[C@@H](CC(C)C)C(=O)NCC(=O)N[C@@H](Cc4ccccc4)C(=O)N[C@@H](CCSC)C(=O)N[C@@H](CCCNC(=N)N)C(=O)N[C@@H](CCCCN)C(=O)N2)NC(=O)[C@H](CSSC[C@@H](C(=O)N[C@@H](CCCCN)C(=O)N[C@@H](Cc2ccc(O)cc2)C(=O)N[C@H](C(=O)N[C@@H](Cc2ccccc2)C(N)=O)C(C)C)NC(=O)[C@H](Cc2c[nH]c4ccccc24)NC(=O)[C@H](CCCCN)NC(=O)[C@H](Cc2c[nH]cn2)NC(=O)CNC(=O)[C@H](CCCNC(=N)N)NC(=O)[C@H](CO)NC3=O)NC(=O)[C@H](CCCCN)NC(=O)[C@H](CC(=O)O)NC(=O)[C@H](CC(N)=O)NC(=O)[C@H](CC(=O)O)NC(=O)[C@@H]2CCCN2C1=O [compound 343] (H-DCLGFMRKCIPDNDKCCRPNLVCSRGHKWCKYVF-NH2; disulfide 2-17, 9-23, 16-30)",,,,,100,4.07,90
